From US12410220B2, “Modulation of mammalian cell lineage by synthetic immodulins” (priority 2021, dated 2025)
Marks after values point to notes of the source that are not given here. Peptide text beside a SMILES is read from it.

Columns and labels:
[1] = biological target: T1, RXR-alpha DBD (Homo sapiens, UniProt P19793); assay: Experiment 4B binding to RXR-alpha DBD; settings: 100 ng/well protein; 800 ng/well SA488-labelled peptide, 2 hours
T1 construct: purchased Abcam, Cambridge, MA
T1 sequence (P19793 111-228): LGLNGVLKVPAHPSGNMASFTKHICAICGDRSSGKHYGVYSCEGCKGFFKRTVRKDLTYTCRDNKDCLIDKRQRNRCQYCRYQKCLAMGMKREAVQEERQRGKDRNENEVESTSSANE
Description: (§1) Experiment 4B. Binding of immodulin peptides to RXR isoforms and domains. 100 ng/well recombinant human RXRa-DBD or RXRa-LBD, or 400 ng/well full length RXR-alpha, RXR-beta, RXR-gamma or PPAR-gamma (Abcam, Cambridge, MA) was adsorbed to wells of a 96-well plate for 60 minutes at room temperature, then blocked with 200 uL 1% BSA in PBS buffer overnight. The plate was washed with PBS and 800 ng/well Streptavidin-Alexa 488 conjugate (SA488)-labelled peptide was added. The plate was incubated for 2 hours at room temperature, washed and counted in a fluorometer (excitation/emission 485/525 nm). Significant binding above background is also shown (**p<0.05). […] When tested against domains of RXR-alpha, these peptides bind the DNA-binding domain (DBD) better than the ligand-binding domain (LBD).

[2] = biological target: T2, AA111-228 DNA-binding domain of RXR-alpha (RXRa-DBD) (Homo sapiens, UniProt P19793); assay: Experiment 4A binding to RXRa-DBD; settings: 1 ug/well RXRa-DBD; 800 ng/well SA488-labelled peptide, 60 min; background subtracted
T2 construct: purchased Abcam, Cambridge, MA
T2 sequence (P19793 111-228): T1 sequence (P19793 111-228)
Description: Experiment 4A. Binding of immodulin peptides to AA111-228 DNA-binding domain of RXR-alpha (RXRa-DBD). 1 ug/well recombinant RXRa-DBD (Abcam, Cambridge, MA) was adsorbed to wells of a 96-well plate for 60 minutes at room temperature, then blocked with 200 uL 1% bovine serum albumin (BSA) in PBS buffer overnight. Plate was washed and 800 ng/well Streptavidin-Alexa 488 conjugate (SA488)-labelled immX peptide was added. The plate was incubated for 60 min at room temperature, washed and counted in a standard fluorometer (excitation/emission 485/525 nm). Background (buffer alone) was subtracted.

[3] = Experiment 4D binding to FITC-labelled heparin; settings: biotinylated peptide 1 ug/well; 1 ug FITC-labelled heparin, 90 minutes
In short: (§2)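 Biotinylated peptides (1 ug/well) bound to streptavidin plates for 60 min at room temperature, then 1 ug FITC-labelled heparin or hyaluronic acid in PBS added for 90 min at room temperature, in quadruplicate. After washes, fluorescence read at 488/525 nm and counts normalized to immX3 peptide binding = 100.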

[4] = biological target: T3, RXR-beta (Homo sapiens, UniProt P28702); assay: Experiment 4B binding to full length RXR-beta; settings: 400 ng/well protein; 800 ng/well SA488-labelled peptide, 2 hours
T3 construct: 400 ng/well full length RXR-alpha, RXR-beta, RXR-gamma or PPAR-gamma; purchased Abcam, Cambridge, MA
T3 sequence (P28702 1-533): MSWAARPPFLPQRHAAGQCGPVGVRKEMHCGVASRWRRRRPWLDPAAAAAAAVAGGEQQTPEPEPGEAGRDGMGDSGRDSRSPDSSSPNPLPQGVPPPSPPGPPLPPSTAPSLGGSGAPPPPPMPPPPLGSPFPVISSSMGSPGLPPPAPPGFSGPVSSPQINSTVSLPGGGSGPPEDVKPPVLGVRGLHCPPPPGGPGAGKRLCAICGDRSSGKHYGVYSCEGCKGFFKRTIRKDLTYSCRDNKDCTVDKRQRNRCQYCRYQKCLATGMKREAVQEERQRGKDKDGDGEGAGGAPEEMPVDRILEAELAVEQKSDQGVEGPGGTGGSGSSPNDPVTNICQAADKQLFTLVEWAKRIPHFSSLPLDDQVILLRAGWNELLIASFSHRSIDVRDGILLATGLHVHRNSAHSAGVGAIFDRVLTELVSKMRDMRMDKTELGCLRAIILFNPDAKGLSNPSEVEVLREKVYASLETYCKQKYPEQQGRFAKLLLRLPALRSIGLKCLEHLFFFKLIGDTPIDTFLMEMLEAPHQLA
Description: as §1

[5] = biological target: T4, RXR-gamma (Homo sapiens, UniProt P48443); assay: Experiment 4B binding to full length RXR-gamma; settings: 400 ng/well protein; 800 ng/well SA488-labelled peptide, 2 hours
T4 construct: 400 ng/well full length RXR-alpha, RXR-beta, RXR-gamma or PPAR-gamma; purchased Abcam, Cambridge, MA
T4 sequence (P48443 1-463): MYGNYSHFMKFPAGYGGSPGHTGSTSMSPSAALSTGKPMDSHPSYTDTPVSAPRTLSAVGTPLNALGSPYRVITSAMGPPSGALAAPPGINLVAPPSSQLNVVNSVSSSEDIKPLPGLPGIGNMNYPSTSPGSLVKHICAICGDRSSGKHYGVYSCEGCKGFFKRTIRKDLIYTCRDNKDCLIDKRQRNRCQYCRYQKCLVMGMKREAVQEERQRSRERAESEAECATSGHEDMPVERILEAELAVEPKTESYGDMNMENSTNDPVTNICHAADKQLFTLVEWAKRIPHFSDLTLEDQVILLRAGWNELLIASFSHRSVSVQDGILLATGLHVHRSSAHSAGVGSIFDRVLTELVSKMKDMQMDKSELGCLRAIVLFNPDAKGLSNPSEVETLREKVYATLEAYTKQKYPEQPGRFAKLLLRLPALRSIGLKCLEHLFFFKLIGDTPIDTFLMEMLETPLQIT
Description: as §1

[6] = Ferric iron-binding assay of biotinylated immodulin peptides; settings: N-terminally biotinylated peptide, 400 ng per well, 60 min room temperature; immX3AVD = 100
In short: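 N-terminally biotinylated peptides (400 ng/well) were tested for ferric iron binding in two formats: streptavidin-A488 complexes on Fe3+-charged NTA plates, or streptavidin-captured peptide probed with FITC-NTA·Fe3+. Each step was 60 min at room temperature with fluorescence read at 525 nm. Values are normalized to immX3AVD control (100) and averaged across both protocols.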

[7] = Experiment 4D binding to FITC-labelled hyaluronic acid; settings: biotinylated peptide 1 ug/well; 1 ug FITC-labelled hyaluronic acid, 90 minutes
In short: as §2

| Binding to RXR-alpha DBD relative to imm3 binding (=100) [1] | Fluorescence, binding to RXRa-DBD [2] | Heparin binding, counts normalized for immX3 peptide binding=100 [3] | Binding to RXR-beta relative to imm3 binding (=100) [4] | Binding to RXR-gamma relative to imm3 binding (=100) [5] | Ferric iron binding, fluorescence standardized to immX3AVD control peptide (100), Avg ± SD [6] | Hyaluronate binding, counts normalized for immX3 peptide binding=100 [7] | Structure (SMILES) |
| --- | --- | --- | --- | --- | --- | --- | --- |
| 22.7 ± 3.1** | 6,802±336 | 95.1 ± 25.7 | 4.0 ± 0.8 | 90.0 ± 19.6** | 71.6 ± 6.6** | 60.0 ± 8.6** | CC[C@H](C)[C@H](NC(=O)CNC(=O)[C@H](CCCNC(=N)N)NC(=O)[C@H](CCCCN)NC(=O)[C@H](CCCNC(=N)N)NC(=O)CNC(=O)[C@H](CCCNC(=N)N)NC(=O)[C@H](CO)NC(=O)[C@@H]1CCCN1C(=O)[C@H](CCCCN)NC(=O)[C@H](CS)NC(=O)[C@H](CCC(N)=O)NC(=O)[C@H](CCCCN)NC(=O)[C@H](CCCNC(=N)N)NC(=O)[C@H](CCCCN)NC(=O)[C@H](Cc1ccc(O)cc1)NC(=O)[C@H](Cc1ccccc1)NC(=O)CNC(=O)[C@H](CCCCN)NC(=O)[C@@H](N)CCCNC(=N)N)C(=O)N[C@@H](CS)C(=O)N[C@@H](Cc1c[nH]c2ccccc12)C(=O)O [imm5] (H-RKGFYKRKQCKPSRGRKRGICW-OH; N-terminus and C-terminus assumed) |
| 3.2 ± 2.0 | 27±31 | 6.8 ± 24.1 | 0.3 ± 1.2 | 3.6 ± 7.0 | 3.3 ± 1.5** | 14.6 ± 22.6 | CC(C)C[C@H](NC(=O)[C@H](C)NC(=O)[C@@H]1CCCN1C(=O)[C@H](Cc1c[nH]cn1)NC(=O)[C@H](CS)NC(=O)[C@H](CCC(N)=O)NC(=O)[C@H](CCCCN)NC(=O)[C@@H]1CCCN1C(=O)[C@H](Cc1c[nH]cn1)NC(=O)[C@H](Cc1ccccc1)NC(=O)[C@H](CC(N)=O)NC(=O)CNC(=O)[C@H](CC(N)=O)NC(=O)[C@@H](N)CCCNC(=N)N)C(=O)N[C@@H](CC(=O)O)C(=O)NCC(=O)N[C@@H](CCC(N)=O)C(=O)N[C@@H](CCCNC(=N)N)C(=O)NCC(=O)N[C@@H](CCCCN)C(=O)N[C@@H](CS)C(=O)N[C@@H](Cc1c[nH]c2ccccc12)C(=O)O [imm4] (H-RNGNFHPKQCHPALDGQRGKCW-OH; N-terminus and C-terminus assumed) |
| 22.9 ± 2.1** | 587±192 | 97.2 ± 17.3 | 4.7 ± 0.4 | 42.0 ± 11.6** | 65.9 ± 4.9** | 44.9 ± 14.1** | N=C(N)NCCC[C@H](NC(=O)[C@H](CCCNC(=N)N)NC(=O)[C@H](CCC(N)=O)NC(=O)CNC(=O)[C@H](CCC(N)=O)NC(=O)[C@H](CO)NC(=O)[C@H](CO)NC(=O)[C@H](CCCNC(=N)N)NC(=O)[C@H](CS)NC(=O)[C@H](CCC(N)=O)NC(=O)[C@H](CCCNC(=N)N)NC(=O)[C@H](CCCCN)NC(=O)[C@H](CCCNC(=N)N)NC(=O)[C@H](Cc1ccc(O)cc1)NC(=O)[C@H](Cc1ccccc1)NC(=O)CNC(=O)[C@H](CCCNC(=N)N)NC(=O)[C@@H](N)Cc1c[nH]cn1)C(=O)NCC(=O)N1CCC[C@H]1C(=O)N[C@@H](CS)C(=O)N[C@@H](Cc1c[nH]c2ccccc12)C(=O)O [imm6] (H-HRGFYRKRQCRSSQGQRRGPCW-OH; N-terminus and C-terminus assumed) |
| 22.2 ± 2.4** | 6,572±129 | 104.2 ± 22.0 | 2.9 ± 1.1 | 100.0 ± 16.5** | 66.7 ± 4.7** | 57.2 ± 5.7** | N=C(N)NCCC[C@H](NC(=O)CNC(=O)[C@H](CCCCN)NC(=O)[C@H](CO)NC(=O)[C@@H]1CCCN1C(=O)[C@H](CCCNC(=N)N)NC(=O)[C@H](CS)NC(=O)[C@H](CCC(N)=O)NC(=O)[C@H](CCCCN)NC(=O)[C@H](CCCCN)NC(=O)[C@H](CCCCN)NC(=O)[C@H](Cc1ccc(O)cc1)NC(=O)[C@H](Cc1ccccc1)NC(=O)CNC(=O)[C@H](CCCCN)NC(=O)[C@@H](N)CCCCN)C(=O)N[C@@H](CCCCN)C(=O)N[C@@H](CCCNC(=N)N)C(=O)NCC(=O)N[C@@H](Cc1ccccc1)C(=O)N[C@@H](CS)C(=O)N[C@@H](Cc1c[nH]c2ccccc12)C(=O)O [imm3] (H-KKGFYKKKQCRPSKGRKRGFCW-OH; N-terminus and C-terminus assumed) |
